According to patent US11078228B2, “Ectonucleotidase inhibitors and methods of use thereof” (Calithera Biosciences, Inc., priority 2018, dated 2021):

Target: recombinant CD73 (Homo sapiens (Human), UniProt P21589)
Assay: Assay 2: Inhibition of the CD73 enzyme in vitro (0.05 nM CD73, 1 hour 37° C., Malachite Green)
Assay type: biochemical
Settings: 0.05 nM CD73, 50 μM AMP, 1 hour at 37° C.
Summary of the method: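 Soluble recombinant CD73 reactions ran 1 hour at 37° C. Malachite Green was then added, and absorbance at 630 nm was read after 5 min at room temperature. Inorganic phosphate was quantified from a phosphate standard curve.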

recombinant CD73, sequence (P21589 27-547): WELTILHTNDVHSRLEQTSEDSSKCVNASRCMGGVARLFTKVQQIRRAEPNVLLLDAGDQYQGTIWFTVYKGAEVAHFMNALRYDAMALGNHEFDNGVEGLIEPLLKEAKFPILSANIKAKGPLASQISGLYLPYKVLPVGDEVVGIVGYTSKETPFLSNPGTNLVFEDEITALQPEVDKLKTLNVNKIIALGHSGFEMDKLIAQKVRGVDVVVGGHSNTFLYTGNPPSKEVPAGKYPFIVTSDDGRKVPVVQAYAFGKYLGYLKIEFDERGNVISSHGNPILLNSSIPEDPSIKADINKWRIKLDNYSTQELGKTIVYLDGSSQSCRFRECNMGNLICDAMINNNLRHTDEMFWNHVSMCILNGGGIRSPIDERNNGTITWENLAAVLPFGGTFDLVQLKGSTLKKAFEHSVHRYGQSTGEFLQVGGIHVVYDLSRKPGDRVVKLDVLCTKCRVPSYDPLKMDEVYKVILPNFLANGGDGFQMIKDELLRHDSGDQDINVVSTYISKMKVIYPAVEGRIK

Compound | IC50
C#C[C@@]1(O)[C@@H](COC(Cc2ccccc2)(C(=O)O)C(=O)O)O[C@@H](n2cnc3c(N(C)C4CCC4)nc(Cl)nc32)[C@@H]1O [Example 81, 2-benzyl-2-(((2R,3S,4R,5R)-5-(2-chloro-6-(cyclobutyl(methyl)amino)-9H-purin-9-yl)-3-ethynyl-3,4-dihydroxytetrahydrofuran-2-yl)methoxy)malonic acid] | 0.4 nM
C#C[C@@]1(O)[C@@H](COC(Cc2ccccc2)(C(=O)O)C(=O)O)O[C@@H](n2cnc3c(N(C)C(C)C)nc(Cl)nc32)[C@@H]1O [Example 82, 2-benzyl-2-(((2R,3S,4R,5R)-5-(2-chloro-6-(isopropyl(methyl)amino)-9H-purin-9-yl)-3-ethynyl-3,4-dihydroxytetrahydrofuran-2-yl)methoxy)malonic acid] | 2 nM
C#C[C@@]1(O)[C@@H](COC(Cc2ccccc2)(C(=O)O)C(=O)O)O[C@@H](n2cnc3c(NC4CC4)nc(Cl)nc32)[C@@H]1O [Example 83, 2-benzyl-2-(((2R,3S,4R,5R)-5-(2-chloro-6-(cyclopropylamino)-9H-purin-9-yl)-3-ethynyl-3,4-dihydroxytetrahydrofuran-2-yl)methoxy)malonic acid] | 1 nM
C#C[C@@]1(O)[C@@H](COC(Cc2ccccc2)(C(=O)O)C(=O)O)O[C@@H](n2cnc3c(NCc4cccnc4)nc(Cl)nc32)[C@@H]1O [Example 84, 2-benzyl-2-(((2R,3S,4R,5R)-5-(2-chloro-6-((pyridin-3-ylmethyl)amino)-9H-purin-9-yl)-3-ethynyl-3,4-dihydroxytetrahydrofuran-2-yl)methoxy)malonic acid] | 3 nM
C#C[C@@]1(O)[C@@H](COC(Cc2ccccc2)(C(=O)O)C(=O)O)O[C@@H](n2cnc3c(NCc4cccc(Cl)c4)nc(Cl)nc32)[C@@H]1O [Example 86, 2-benzyl-2-(((2R,3S,4R,5R)-5-(2-chloro-6-((3-chlorobenzyl)amino)-9H-purin-9-yl)-3-ethynyl-3,4-dihydroxytetrahydrofuran-2-yl)methoxy)malonic acid] | 1 nM
C#C[C@@]1(O)[C@@H](COC(Cc2ccccc2)(C(=O)O)C(=O)O)O[C@@H](n2cnc3c(NCc4ccc(Cl)cc4)nc(Cl)nc32)[C@@H]1O [Example 87, 2-benzyl-2-(((2R,3S,4R,5R)-5-(2-chloro-6-((4-chlorobenzyl)amino)-9H-purin-9-yl)-3-ethynyl-3,4-dihydroxytetrahydrofuran-2-yl)methoxy)malonic acid] | 0.6 nM
C#C[C@@]1(O)[C@@H](COC(Cc2ccccc2)(C(=O)O)C(=O)O)O[C@@H](n2cnc3c(N4CCC4)nc(Cl)nc32)[C@@H]1O [Example 88, 2-(((2R,3S,4R,5R)-5-(6-(azetidin-1-yl)-2-chloro-9H-purin-9-yl)-3-ethynyl-3,4-dihydroxytetrahydrofuran-2-yl)methoxy)-2-benzylmalonic acid] | 1.2 nM
C#C[C@@]1(O)[C@@H](COC(Cc2ccccc2)(C(=O)O)C(=O)O)O[C@@H](n2cnc3c(N(C)C)nc(Cl)nc32)[C@@H]1O [Example 89, 2-benzyl-2-(((2R,3S,4R,5R)-5-(2-chloro-6-(dimethylamino)-9H-purin-9-yl)-3-ethynyl-3,4-dihydroxytetrahydrofuran-2-yl)methoxy)malonic acid] | 1.1 nM
C#C[C@@]1(O)[C@@H](COC(Cc2ccccc2)(C(=O)O)C(=O)O)O[C@@H](n2cnc3c(NCC(C)(C)O)nc(Cl)nc32)[C@@H]1O [Example 94, 2-benzyl-2-(((2R,3S,4R,5R)-5-(2-chloro-6-((2-hydroxy-2-methylpropyl)amino)-9H-purin-9-yl)-3-ethynyl-3,4-dihydroxytetrahydrofuran-2-yl)methoxy)malonic acid] | 5 nM
C#C[C@@]1(O)[C@@H](COC(Cc2ccccc2)(C(=O)O)C(=O)O)O[C@@H](n2cnc3c(N[C@@H](C)CO)nc(Cl)nc32)[C@@H]1O [Example 95, 2-benzyl-2-(((2R,3S,4R,5R)-5-(2-chloro-6-(((S)-1-hydroxypropan-2-yl)amino)-9H-purin-9-yl)-3-ethynyl-3,4-dihydroxytetrahydrofuran-2-yl)methoxy)malonic acid] | 7 nM
C#C[C@@]1(O)[C@@H](COC(Cc2ccccc2)(C(=O)O)C(=O)O)O[C@@H](n2cnc3c(NCCO)nc(Cl)nc32)[C@@H]1O [Example 97, 2-benzyl-2-(((2R,3S,4R,5R)-5-(2-chloro-6-((2-hydroxyethyl)amino)-9H-purin-9-yl)-3-ethynyl-3,4-dihydroxytetrahydrofuran-2-yl)methoxy)malonic acid] | 2 nM
C#C[C@@]1(O)[C@@H](COC(Cc2ccccc2)(C(=O)O)C(=O)O)O[C@@H](n2cnc3c(N[C@H](C)CO)nc(Cl)nc32)[C@@H]1O [Example 98, 2-benzyl-2-(((2R,3S,4R,5R)-5-(2-chloro-6-(((R)-1-hydroxypropan-2-yl)amino)-9H-purin-9-yl)-3-ethynyl-3,4-dihydroxytetrahydrofuran-2-yl)methoxy)malonic acid] | 2 nM
C#C[C@@]1(O)[C@@H](COC(Cc2ccccc2)(C(=O)O)C(=O)O)O[C@@H](n2cnc3c(N(CCO)C4CC4)nc(Cl)nc32)[C@@H]1O [Example 99, 2-benzyl-2-(((2R,3S,4R,5R)-5-(2-chloro-6-(cyclopropyl(2-hydroxyethyl)amino)-9H-purin-9-yl)-3-ethynyl-3,4-dihydroxytetrahydrofuran-2-yl)methoxy)malonic acid] | 6 nM
C#C[C@@]1(O)[C@@H](COC(Cc2ccccc2)(C(=O)O)C(=O)O)O[C@@H](n2cnc3c(N4CCC[C@@H]4CO)nc(Cl)nc32)[C@@H]1O [Example 103, 2-benzyl-2-(((2R,3S,4R,5R)-5-(2-chloro-6-((R)-2-(hydroxymethyl)-pyrrolidin-1-yl)-9H-purin-9-yl)-3-ethynyl-3,4-dihydroxytetrahydrofuran-2-yl)methoxy)malonic acid] | 3 nM
C#C[C@@]1(O)[C@@H](COC(Cc2ccccc2)(C(=O)O)C(=O)O)O[C@@H](n2cnc3c(N4CCC[C@H]4CO)nc(Cl)nc32)[C@@H]1O [Example 104, 2-benzyl-2-(((2R,3S,4R,5R)-5-(2-chloro-6-((S)-2-(hydroxymethyl)-pyrrolidin-1-yl)-9H-purin-9-yl)-3-ethynyl-3,4-dihydroxytetrahydrofuran-2-yl)methoxy)malonic acid] | 2 nM
C#C[C@@]1(O)[C@@H](COC(Cc2ccccc2)(C(=O)O)C(=O)O)O[C@@H](n2cnc3c(N(C)C4CC4)nc(Cl)nc32)[C@@H]1O [Example 105, 2-benzyl-2-(((2R,3S,4R,5R)-5-(2-chloro-6-(cyclopropyl(methyl)amino)-9H-purin-9-yl)-3-ethynyl-3,4-dihydroxytetrahydrofuran-2-yl)methoxy)malonic acid] | 2 nM
C#C[C@@]1(O)[C@@H](COC(Cc2ccccc2)(C(=O)O)C(=O)NC)O[C@@H](n2cnc3c(NCc4ccccc4)nc(Cl)nc32)[C@@H]1O (stereo partly drawn) [Example 107, 2-benzyl-2-(((2R,3S,4R,5R)-5-(6-(benzylamino)-2-chloro-9H-purin-9-yl)-3-ethynyl-3,4-dihydroxytetrahydrofuran-2-yl)methoxy)-3-(methylamino)-3-oxopropanoic acid] | 506 nM

More lines, in order of falling IC50, values ahead:

IC50 | Compound
296 nM | C#C[C@@]1(O)[C@@H](COC(Cc2ccccc2)(C(=O)O)C(=O)NC)O[C@@H](n2cnc3c(NCC4CC4)nc(Cl)nc32)[C@@H]1O (stereo partly drawn) [Example 106, 2-benzyl-2-(((2R,3S,4R,5R)-5-(2-chloro-6-((cyclopropylmethyl)amino)-9H-purin-9-yl)-3-ethynyl-3,4-dihydroxytetrahydrofuran-2-yl)methoxy)-3-(methylamino)-3-oxopropanoic acid]
3 nM | C#C[C@@]1(O)[C@@H](COC(Cc2ccccc2)(C(=O)O)C(=O)O)O[C@@H](n2cnc3c(N(CC)CC)nc(Cl)nc32)[C@@H]1O [Example 96, 2-benzyl-2-(((2R,3S,4R,5R)-5-(2-chloro-6-(diethylamino)-9H-purin-9-yl)-3-ethynyl-3,4-dihydroxytetrahydrofuran-2-yl)methoxy)malonic acid]
2 nM | C#C[C@@]1(O)[C@@H](COC(Cc2ccccc2)(C(=O)O)C(=O)O)O[C@@H](n2cnc3c(N4CCCCCC4)nc(Cl)nc32)[C@@H]1O [Example 80, 2-(((2R,3S,4R,5R)-5-(6-(azepan-1-yl)-2-chloro-9H-purin-9-yl)-3-ethynyl-3,4-dihydroxytetrahydrofuran-2-yl)methoxy)-2-benzylmalonic acid]
2 nM | C#C[C@@]1(O)[C@@H](COC(Cc2ccccc2)(C(=O)O)C(=O)O)O[C@@H](n2cnc3c(NCc4cccc(F)c4)nc(Cl)nc32)[C@@H]1O [Example 85, 2-benzyl-2-(((2R,3S,4R,5R)-5-(2-chloro-6-((3-fluorobenzyl)amino)-9H-purin-9-yl)-3-ethynyl-3,4-dihydroxytetrahydrofuran-2-yl)methoxy)malonic acid]
2 nM | C#C[C@@]1(O)[C@@H](COC(Cc2ccccc2)(C(=O)O)C(=O)O)O[C@@H](n2cnc3c(N4CC[C@@H](O)C4)nc(Cl)nc32)[C@@H]1O [Example 100, 2-benzyl-2-(((2R,3S,4R,5R)-5-(2-chloro-6-((R)-3-hydroxypyrrolidin-1-yl)-9H-purin-9-yl)-3-ethynyl-3,4-dihydroxytetrahydrofuran-2-yl)methoxy)malonic acid]
1 nM | C#C[C@@]1(O)[C@@H](COC(Cc2ccccc2)(C(=O)O)C(=O)O)O[C@@H](n2cnc3c(N4CC[C@H](CO)C4)nc(Cl)nc32)[C@@H]1O [Example 101, 2-benzyl-2-(((2R,3S,4R,5R)-5-(2-chloro-6-((S)-3-(hydroxymethyl)-pyrrolidin-1-yl)-9H-purin-9-yl)-3-ethynyl-3,4-dihydroxytetrahydrofuran-2-yl)methoxy)malonic acid]
1 nM | C#C[C@@]1(O)[C@@H](COC(Cc2ccccc2)(C(=O)O)C(=O)O)O[C@@H](n2cnc3c(N4CC[C@@H](CO)C4)nc(Cl)nc32)[C@@H]1O [Example 102, 2-benzyl-2-(((2R,3S,4R,5R)-5-(2-chloro-6-((R)-3-(hydroxymethyl)-pyrrolidin-1-yl)-9H-purin-9-yl)-3-ethynyl-3,4-dihydroxytetrahydrofuran-2-yl)methoxy)malonic acid]
